Results on three molecules are retold here after US3984547A, “Veterinary feedstuffs” (Bayer Aktiengesellschaft, priority 1971, dated 1976).

Values after ≈ are worked out from the molar mass of the structure shown. Where two headings read alike, the source gives them in different places.

In one assay the test system is Proteus vulgaris species. Description: MIC in vitro, plate test (agar), Table 1. Type of assay: cell-based. The settings on record: about 37° C, readings 24 and 48 h. How it is done:
The minimum inhibitory concentrations in vitro for some of the new compounds shown in Table 1 (MIC) were determined by the plate test in an agar medium of the following composition: |proteose peptone 10.0 g per liter |5.1 × 10^3 germs were inoculated per plate. […]. Readings were taken after 24 and 48 hours, and the incubation temperature was about 37° C.

For a further assay, the system named is Escherichia coli C 165. Description: ED100 in mice after intraperitoneal infection, Table 3. Type of assay: in vivo. Conditions: read-out: effective 100% dose (ED100). How it is done:
In animal experiments on mice, the effective 100% dose (ED100) in mg/Kg was determined for certain compounds of the invention after intraperitoneal infection and subcutaneous (s.c.) or oral (p.o.) administration of the preparation.

Regarding `NC(=O)NN=Cc1c(C(=O)O)[n+]([O-])c2ccccc2[n+]1[O-]` [Example 12], it took 150 µg/mL (≈ 515 µM) to inhibit growth in the assay on Proteus vulgaris species (MIC).

In the case of `CN(C)N=Cc1c(C(=O)O)[n+]([O-])c2ccccc2[n+]1[O-]` [Example 14], the ED100 amounted to 100 mg/kg with Escherichia coli C 165 (C165, oral (p.c. [sic])) and 50 mg/kg in the assay with Escherichia coli C 165 (C165, sc, s.c.).

With `O=C(O)c1c(C=NCCO)[n+]([O-])c2ccccc2[n+]1[O-]` [Example 8], the ED100 amounted to 100 mg/kg in the assay on Escherichia coli C 165 (C165, oral (p.c. [sic])) and 50 mg/kg in the assay with Escherichia coli C 165 (C165, sc, s.c.).
